Experimental data reported in PubChem BioAssay AID328 (DTP/NCI, 2004).
Where “and” joins values, the source holds several entries; their conditions need not be identical. Identical values can stand only once. Toxic doses and inconclusive results are not listed.

System: BDF1 mice, P388 leukemia ip, median survival T/C
Assay: NCI In Vivo Anticancer Drug Screen. Data for tumor model P388 Leukemia (intraperitoneal) in B6D2F1 (BDF1) mice
Details: endpoint: median survival time, higher = longer survival
Method in brief: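 Compound-treated tumour-bearing mice were compared with vehicle-treated controls. Survival was recorded, and the value is the treated-group measurement divided by the control-group measurement (T/C).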

[1] = dose: 100.0 mg/kg/injection, schedule: Q01DX009 (ip), vehicle: saline with Tween-80
[2] = dose: 200.0 mg/kg/injection, schedule: Q01DX009 (ip), vehicle: saline with Tween-80
[3] = dose: 400.0 mg/kg/injection, schedule: Q01DX009 (ip), vehicle: saline with Tween-80
[4] = dose: 50.0 mg/kg/injection, schedule: Q01DX009 (ip), vehicle: saline with Tween-80
[5] = dose: 25.0 mg/kg/injection, schedule: Q01DX009 (ip), vehicle: saline with Tween-80
[6] = dose: 100.0 mg/kg/injection, schedule: Q04DX003 (ip), vehicle: saline
[7] = dose: 200.0 mg/kg/injection, schedule: Q04DX003 (ip), vehicle: saline

Question: With `O=c1oc2ccc(O)cc2c2ccccc12` as the compound, how does the T/C (dose: 50.0 mg/kg/injection, schedule: Q04DX003 (ip), vehicle: saline sonified) read?
Answer: 95 % of control

Question: What about the T/C (dose: 100.0 mg/kg/injection, schedule: Q04DX003 (ip), vehicle: saline sonified) of the same compound?
Answer: 100 % of control

Question: What about the T/C (dose: 200.0 mg/kg/injection, schedule: Q04DX003 (ip), vehicle: saline sonified) of the same compound?
Answer: 104 % of control

Question: What does the source list for `N=Cc1c(O)n(-c2ccccc2)c(=O)n(-c2ccccc2)c1=O`?
Answer: T/C [1]: 95 % of control; T/C [2]: 95 % of control; T/C [3]: 90 % of control

Question: Which results are given for `COc1ccc(C(=S)N2CCN(c3ccccc3)CC2)cc1`?
Answer: T/C [4]: 95 % of control; T/C [1]: 100 % of control; T/C [2]: 95 % of control

Question: What does the source list for `COc1cccc2ccc(CC(O)(c3ccccc3)c3ccccc3)nc12`?
Answer: T/C [5]: 91 % of control; T/C [4]: 100 % of control; T/C [1]: 100 % of control

Question: What does the source list for `O=C(O)CCC(=O)Nc1ccccc1C(F)(F)F`?
Answer: T/C [1]: 100 % of control; T/C [2]: 109 % of control; T/C [3]: 90 % of control

Question: For `O=C1CCC(=O)C12CCNCC2`, which T/C [6] is on record?
Answer: 100 % of control

Question: What about the T/C [7] of the same compound?
Answer: 100 % of control

Question: What about the T/C (dose: 400.0 mg/kg/injection, schedule: Q04DX003 (ip), vehicle: saline) of the same compound?
Answer: 109 % of control

Question: Which T/C (dose: 100.0 mg/kg/injection, schedule: Q04DX003 (ip), vehicle: Klucel (hydroxypropylcellulose) (HPC)) does the source give for `O=c1oc2cccc(O)c2c2c1CCCC2` here?
Answer: 100 % of control

Question: What about the T/C (dose: 200.0 mg/kg/injection, schedule: Q04DX003 (ip), vehicle: Klucel (hydroxypropylcellulose) (HPC)) of the same compound?
Answer: 104 % of control

Question: What about the T/C (dose: 400.0 mg/kg/injection, schedule: Q04DX003 (ip), vehicle: Klucel (hydroxypropylcellulose) (HPC)) of the same compound?
Answer: 100 % of control

Question: How did the T/C (dose: 12.5 mg/kg/injection, schedule: Q04DX003 (ip), vehicle: saline) turn out when `c1ccc(Nc2ncc3cnccn23)cc1` was run?
Answer: 95 % of control

Question: What about the T/C (dose: 25.0 mg/kg/injection, schedule: Q04DX003 (ip), vehicle: saline) of the same compound?
Answer: 105 % of control

Question: What about the T/C (dose: 50.0 mg/kg/injection, schedule: Q04DX003 (ip), vehicle: saline) of the same compound?
Answer: 92 % of control

Question: And the T/C [6]?
Answer: 103 % of control

Question: And the T/C [7]?
Answer: 97 % of control and 101 % of control

Question: And the T/C (dose: 300.0 mg/kg/injection, schedule: Q04DX003 (ip), vehicle: saline)?
Answer: 115 % of control

Question: Which T/C (dose: 3.13 mg/kg/injection, schedule: Q01DX009 (ip), vehicle: saline with Tween-80) does the source give for `CC(C)(C#N)Nc1ccccc1` here?
Answer: 90 % of control and 100 % of control

Question: And the T/C (dose: 6.25 mg/kg/injection, schedule: Q01DX009 (ip), vehicle: saline with Tween-80)?
Answer: 90 % of control and 95 % of control

Question: What about the T/C (dose: 12.5 mg/kg/injection, schedule: Q01DX009 (ip), vehicle: saline with Tween-80) of the same compound?
Answer: 95 % of control

Question: What does the source list for `CC(=O)N1C=Cn2c(cnc2C)C1O` (stereo unspecified)?
Answer: T/C (dose: 100.0 mg/kg/injection, schedule: Q04DX003 (ip), vehicle: water): 96 % of control; T/C (dose: 200.0 mg/kg/injection, schedule: Q04DX003 (ip), vehicle: water): 91 % of control; T/C (dose: 400.0 mg/kg/injection, schedule: Q04DX003 (ip), vehicle: water): 99 % of control

Question: How did the T/C (dose: 6.25 mg/kg/injection, schedule: Q01DX009 (ip), vehicle: water) turn out when `O=C(CS)CS` was run?
Answer: 102 % of control

Question: What about the T/C (dose: 12.5 mg/kg/injection, schedule: Q01DX009 (ip), vehicle: water) of the same compound?
Answer: 102 % of control

Question: And the T/C (dose: 25.0 mg/kg/injection, schedule: Q01DX009 (ip), vehicle: water)?
Answer: 93 % of control

Question: What about the T/C (dose: 50.0 mg/kg/injection, schedule: Q01DX009 (ip), vehicle: water) of the same compound?
Answer: 104 % of control

Question: What does the source list for `CC(C)(C)C1C2N1C1(c3ccccc3)OC2(c2ccccc2)c2ccccc21` (stereo unspecified)?
Answer: T/C (dose: 50.0 mg/kg/injection, schedule: Q01DX009 (ip), vehicle: Klucel (hydroxypropylcellulose) (HPC)): 106 % of control; T/C (dose: 100.0 mg/kg/injection, schedule: Q01DX009 (ip), vehicle: Klucel (hydroxypropylcellulose) (HPC)): 100 % of control; T/C (dose: 200.0 mg/kg/injection, schedule: Q01DX009 (ip), vehicle: Klucel (hydroxypropylcellulose) (HPC)): 104 % of control

Question: Which results are given for `O=C(NC(=S)N1CC=CCC1)c1ccccc1`?
Answer: T/C [4]: 87 % of control; T/C [1]: 111 % of control; T/C [2]: 108 % of control; T/C [3]: 101 % of control

Question: What does the source list for `N#Cc1ccccc1[N+](=O)[O-]`?
Answer: T/C (dose: 4.0 mg/kg/injection, schedule: Q01DX010 (ip), vehicle: carboxymethylcellulose (CMC)): 100 % of control; T/C (dose: 16.0 mg/kg/injection, schedule: Q01DX010 (ip), vehicle: carboxymethylcellulose (CMC)): 100 % of control

Question: Which T/C [5] does the source give for `ClCCOC(OCCCl)OCCCl` here?
Answer: 113 % of control

Question: What about the T/C [4] of the same compound?
Answer: 109 % of control

Question: What about the T/C (dose: 100.0 mg/kg/injection, schedule: Q04DX003 (ip), vehicle: saline with Tween-80) of the same compound?
Answer: 95 % of control

Question: With `CCOC(=O)c1[nH]c(C)nc1/N=N/N(C)C` as the compound, how does the T/C (dose: 12.5 mg/kg/injection, schedule: Q01DX009 (ip), vehicle: saline) read?
Answer: 114 % of control

Question: What about the T/C (dose: 25.0 mg/kg/injection, schedule: Q01DX009 (ip), vehicle: saline) of the same compound?
Answer: 103 % of control and 121 % of control

Question: What about the T/C (dose: 50.0 mg/kg/injection, schedule: Q01DX009 (ip), vehicle: saline) of the same compound?
Answer: 111 % of control

Question: And the T/C (dose: 200.0 mg/kg/injection, schedule: Q01DX009 (ip), vehicle: saline)?
Answer: 154 % of control and 180 % of control

Question: Which T/C (dose: 75.0 mg/kg/injection, schedule: Q04DX003 (ip), vehicle: saline sonified) does the source give for `Cc1csc2nc(-c3ccccc3)nc(Cl)c12` here?
Answer: 105 % of control

Question: What about the T/C (dose: 150.0 mg/kg/injection, schedule: Q04DX003 (ip), vehicle: saline sonified) of the same compound?
Answer: 120 % of control

Question: And the T/C (dose: 300.0 mg/kg/injection, schedule: Q04DX003 (ip), vehicle: saline sonified)?
Answer: 110 % of control
